Results from US8546414B2, “Ion channel modulators and methods of use” (Vertex Pharmaceuticals Incorporated, priority 2004, dated 2013).

Columns and labels:
CaV2.2 = biological target: T1, CaV2.2 (Homo sapiens, UniProt Q00975); assay: VIPR optical membrane potential assay with electrical stimulation, CaV2.2; format: cell-based; details: Table 9, CaV 2.2 receptors
T1 construct: expressed in transfected cells; host or cells: HEK293
Method: A. Optical Methods for Assaying CaV Inhibition Properties of Compounds:
(§1) Antagonist properties of test compounds were assessed as follows. Cells expressing the CaV of interest were placed into microtiter plates. After an incubation period, the cells were stained with fluorescent dyes sensitive to the transmembrane potential. The test compounds were added to the microtiter plate. The cells were stimulated with electrical means to evoke a CaV dependent membrane potential change from unblocked channels, which was detected and measured with trans-membrane potential-sensitive dyes. Antagonists were detected as a decreased membrane potential response to the stimulus.
(§2) VIPR® Optical Membrane Potential Assay Method with Electrical Stimulation
The following is an example of how CaV2.2 inhibition activity is measured using the optical membrane potential method. Other subtypes are performed in an analogous mode in a cell line expressing the CaV of interest.
HEK293 cells stably expressing CaV2.2 are plated into 96-well microtiter plates. After an appropriate incubation period, the cells are stained with the voltage sensitive dyes CC2-DMPE/DiSBAC2(3) as follows.
(§3) 2X CC2-DMPE=20 μM CC2-DMPE: 10 mM CC2-DMPE is vortexed with an equivalent volume of 10% Pluronic, followed by vortexing in required amount of HBSS containing 10 mM HEPES. Each cell plate will require 5 mL of 2×CC2-DMPE. 50 μL of 2×CC2-DMPE is added to wells containing washed cells, resulting in a 10 μM final staining concentration. The cells are stained for 30 minutes in the dark at RT.
Vortex in required amount of Bath X with beta-cyclodextrin. Each 96 well cell plate will require 5 ml of 2XCC2DMPE. Wash plate with ELx405 with Bath X, leaving a residual volume of 50 μL/well. Add 50 μL of 2XCC2DMPE & […] to each well. Stain for 30 minutes in the dark at RT.
Allow solution to sit for 10 minutes. Slowly mix in 370 mM BaCl2. This solution can be used to solvate compound plates. Note that compound plates are made at 1.5× drug concentration and not the usual 2X. Wash CC2 stained plate, again, leaving residual volume of 50 μL. Add 100 uL/well of the AY17 solution. Stain for 15 minutes in the dark at RT. Run plate on the optical reader.
(§4) The instrument comprises a microtiter plate handler, an optical system for exciting the coumarin dye while simultaneously recording the coumarin and oxonol emissions, a waveform generator, a current- or voltage-controlled amplifier, and a device for inserting electrodes in well. Under integrated computer control, this instrument passes user-programmed electrical stimulus protocols to cells within the wells of the microtiter plate.
Insert or use electrodes into each well to be assayed.
(§5) Use the current-controlled amplifier to deliver stimulation wave pulses for 3-5 s. Two seconds of pre-stimulus recording are performed to obtain the un-stimulated intensities. Five seconds of post-stimulation recording are performed to examine the relaxation to the resting state.
(§6) Data are analyzed and reported as normalized ratios of background-subtracted emission intensities measured in the 460 nm and 580 nm channels. Background intensities are then subtracted from each assay channel. Background intensities are obtained by measuring the emission intensities during the same time periods from identically treated assay wells in which there are no cells. The response as a function of time is then reported as the ratios obtained using the following formula: […]
(§7) The data is further reduced by calculating the initial (Ri) and final (Rf) ratios. These are the average ratio values during part or all of the pre-stimulation period, and during sample points during the stimulation period. The response to the stimulus R=Rf/Ri is then calculated.
Control responses are obtained by performing assays in the presence of a compound with the desired properties (positive control), such as mibefradil, and in the absence of pharmacological agents (negative control).

NaV1.3 = biological target: T2, NaV1.3 (Homo sapiens, UniProt Q9NY46); assay: VIPR optical membrane potential assay with electrical stimulation, NaV1.3; format: cell-based; details: Table 9, NaV 1.3 receptors
T2 construct: expressed in transfected cells; host or cells: HEK293
Method: as §1, with “expressing the NaV of interest” for “expressing the CaV of interest”, “stimulated with either chemical or electrical means” for “stimulated with electrical means”, “evoke a NaV dependent membrane” for “evoke a CaV dependent membrane”
as §2
The following is an example of how NaV1.3 inhibition activity is measured using the optical membrane potential method#2. Other subtypes are performed in an analogous mode in a cell line expressing the NaV of interest.
HEK293 cells stably expressing NaV1.3 are plated into 96-well microtiter plates. After an appropriate incubation period, the cells are stained with the voltage sensitive dyes CC2-DMPE/DiSBAC2(3) as follows.
as §3, with “pluronic,” for “Pluronic,”
2X DISBAC2(3) with ABSC1=6 μM DISBAC2(3) and 1 mM ABSC1: The required amount of 10 mM DISBAC2(3) is added to a 50 ml conical tube and mixed with 1 μL 10% pluronic for each mL of solution to be made and vortexed together. Then HBSS/HEPES is added to make up 2× solution. Finally, the ABSC1 is added.
The 2X DiSBAC2(3) solution can be used to solvate compound plates. Note that compound plates are made at 2× drug concentration. Wash stained plate again, leaving residual volume of 50 Add 50 μL/well of the 2X DiSBAC2(3) w/ABSC1. Stain for 30 minutes in the dark at RT.
as §4
as §5, with “• 1. Insert or use electrodes into each well to be assayed. • 2. Use” for “Use”, “3” for “3-5”, “state. Data Analysis” for “state.”
as §6, §7
Control responses are obtained by performing assays in the presence of a compound with the desired properties (positive control), such as tetracaine, and in the absence of pharmacological agents (negative control). Responses to the negative (N) and positive (P) controls are calculated as above. The compound antagonist activity A is defined as: […]

T1 sequence (Q00975 whole entry): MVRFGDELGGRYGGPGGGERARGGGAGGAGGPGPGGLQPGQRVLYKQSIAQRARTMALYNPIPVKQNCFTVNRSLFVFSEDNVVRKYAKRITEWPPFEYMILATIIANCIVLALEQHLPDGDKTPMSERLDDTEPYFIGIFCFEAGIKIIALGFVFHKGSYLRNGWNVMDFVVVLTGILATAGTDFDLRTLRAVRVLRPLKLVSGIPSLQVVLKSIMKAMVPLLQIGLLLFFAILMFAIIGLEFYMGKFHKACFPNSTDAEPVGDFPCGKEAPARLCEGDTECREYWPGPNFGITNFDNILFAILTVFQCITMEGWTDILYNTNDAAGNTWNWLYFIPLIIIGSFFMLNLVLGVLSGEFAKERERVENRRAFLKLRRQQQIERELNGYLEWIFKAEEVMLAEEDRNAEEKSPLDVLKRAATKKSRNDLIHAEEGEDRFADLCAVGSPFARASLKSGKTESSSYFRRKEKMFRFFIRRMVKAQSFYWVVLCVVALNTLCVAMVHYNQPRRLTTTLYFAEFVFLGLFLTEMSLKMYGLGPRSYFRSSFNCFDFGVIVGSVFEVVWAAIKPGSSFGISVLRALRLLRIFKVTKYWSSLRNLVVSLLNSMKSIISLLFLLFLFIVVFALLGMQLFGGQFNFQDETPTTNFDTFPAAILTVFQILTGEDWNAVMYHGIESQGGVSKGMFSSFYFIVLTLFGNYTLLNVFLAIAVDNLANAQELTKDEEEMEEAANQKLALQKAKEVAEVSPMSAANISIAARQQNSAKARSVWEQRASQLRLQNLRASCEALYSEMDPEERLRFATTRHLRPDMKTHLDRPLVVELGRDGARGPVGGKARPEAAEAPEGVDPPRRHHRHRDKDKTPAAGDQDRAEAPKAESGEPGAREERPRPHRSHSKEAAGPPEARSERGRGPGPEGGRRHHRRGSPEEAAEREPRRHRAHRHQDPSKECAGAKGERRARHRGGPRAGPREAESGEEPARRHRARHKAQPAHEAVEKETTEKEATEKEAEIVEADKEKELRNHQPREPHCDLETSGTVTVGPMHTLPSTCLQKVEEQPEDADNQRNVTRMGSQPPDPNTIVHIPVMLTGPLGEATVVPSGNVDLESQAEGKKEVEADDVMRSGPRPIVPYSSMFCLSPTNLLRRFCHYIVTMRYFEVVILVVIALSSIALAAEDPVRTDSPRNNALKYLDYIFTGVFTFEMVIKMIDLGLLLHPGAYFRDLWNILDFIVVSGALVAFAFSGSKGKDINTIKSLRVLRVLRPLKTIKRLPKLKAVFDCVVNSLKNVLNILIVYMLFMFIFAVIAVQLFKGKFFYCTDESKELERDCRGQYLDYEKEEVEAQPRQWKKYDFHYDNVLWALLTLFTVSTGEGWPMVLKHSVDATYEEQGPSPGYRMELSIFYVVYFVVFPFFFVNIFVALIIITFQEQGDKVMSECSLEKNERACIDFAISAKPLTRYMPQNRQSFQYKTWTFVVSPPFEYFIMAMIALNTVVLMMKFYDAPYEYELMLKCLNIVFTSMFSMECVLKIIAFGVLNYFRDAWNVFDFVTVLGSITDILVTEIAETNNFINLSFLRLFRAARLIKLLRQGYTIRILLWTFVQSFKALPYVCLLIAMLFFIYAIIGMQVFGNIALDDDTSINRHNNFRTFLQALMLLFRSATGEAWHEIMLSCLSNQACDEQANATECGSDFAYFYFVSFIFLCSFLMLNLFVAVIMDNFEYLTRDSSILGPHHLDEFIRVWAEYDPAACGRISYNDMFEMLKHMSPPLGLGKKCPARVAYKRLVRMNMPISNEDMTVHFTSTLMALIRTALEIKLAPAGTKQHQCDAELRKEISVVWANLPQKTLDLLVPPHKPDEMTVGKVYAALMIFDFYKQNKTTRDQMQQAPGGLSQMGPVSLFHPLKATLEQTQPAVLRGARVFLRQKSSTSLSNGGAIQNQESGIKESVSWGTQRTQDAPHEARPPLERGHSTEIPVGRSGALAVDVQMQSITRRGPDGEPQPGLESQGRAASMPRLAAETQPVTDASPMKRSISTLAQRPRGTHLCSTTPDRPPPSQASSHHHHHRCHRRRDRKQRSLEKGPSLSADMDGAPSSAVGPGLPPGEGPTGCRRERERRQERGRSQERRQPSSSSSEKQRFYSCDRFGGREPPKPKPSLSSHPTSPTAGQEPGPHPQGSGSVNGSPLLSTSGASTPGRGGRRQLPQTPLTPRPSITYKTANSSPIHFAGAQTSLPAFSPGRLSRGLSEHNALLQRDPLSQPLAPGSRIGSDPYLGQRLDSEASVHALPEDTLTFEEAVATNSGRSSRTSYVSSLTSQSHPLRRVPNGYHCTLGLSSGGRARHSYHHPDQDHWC
T1 sequence (P54284 whole entry partner): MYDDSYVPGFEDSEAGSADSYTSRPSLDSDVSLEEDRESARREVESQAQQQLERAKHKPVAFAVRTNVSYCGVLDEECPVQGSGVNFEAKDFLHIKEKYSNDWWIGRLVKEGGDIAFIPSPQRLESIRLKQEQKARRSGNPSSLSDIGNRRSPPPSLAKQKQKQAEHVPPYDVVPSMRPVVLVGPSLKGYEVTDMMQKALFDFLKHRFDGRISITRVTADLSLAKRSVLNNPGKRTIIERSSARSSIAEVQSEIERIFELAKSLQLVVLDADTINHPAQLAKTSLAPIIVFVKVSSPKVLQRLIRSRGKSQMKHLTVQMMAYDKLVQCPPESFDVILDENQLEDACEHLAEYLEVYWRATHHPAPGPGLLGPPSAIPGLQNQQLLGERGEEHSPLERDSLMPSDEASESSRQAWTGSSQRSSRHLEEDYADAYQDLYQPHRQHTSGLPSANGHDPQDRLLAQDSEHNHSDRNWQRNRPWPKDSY
T1 sequence (P54289 25-956 partner limits assumed): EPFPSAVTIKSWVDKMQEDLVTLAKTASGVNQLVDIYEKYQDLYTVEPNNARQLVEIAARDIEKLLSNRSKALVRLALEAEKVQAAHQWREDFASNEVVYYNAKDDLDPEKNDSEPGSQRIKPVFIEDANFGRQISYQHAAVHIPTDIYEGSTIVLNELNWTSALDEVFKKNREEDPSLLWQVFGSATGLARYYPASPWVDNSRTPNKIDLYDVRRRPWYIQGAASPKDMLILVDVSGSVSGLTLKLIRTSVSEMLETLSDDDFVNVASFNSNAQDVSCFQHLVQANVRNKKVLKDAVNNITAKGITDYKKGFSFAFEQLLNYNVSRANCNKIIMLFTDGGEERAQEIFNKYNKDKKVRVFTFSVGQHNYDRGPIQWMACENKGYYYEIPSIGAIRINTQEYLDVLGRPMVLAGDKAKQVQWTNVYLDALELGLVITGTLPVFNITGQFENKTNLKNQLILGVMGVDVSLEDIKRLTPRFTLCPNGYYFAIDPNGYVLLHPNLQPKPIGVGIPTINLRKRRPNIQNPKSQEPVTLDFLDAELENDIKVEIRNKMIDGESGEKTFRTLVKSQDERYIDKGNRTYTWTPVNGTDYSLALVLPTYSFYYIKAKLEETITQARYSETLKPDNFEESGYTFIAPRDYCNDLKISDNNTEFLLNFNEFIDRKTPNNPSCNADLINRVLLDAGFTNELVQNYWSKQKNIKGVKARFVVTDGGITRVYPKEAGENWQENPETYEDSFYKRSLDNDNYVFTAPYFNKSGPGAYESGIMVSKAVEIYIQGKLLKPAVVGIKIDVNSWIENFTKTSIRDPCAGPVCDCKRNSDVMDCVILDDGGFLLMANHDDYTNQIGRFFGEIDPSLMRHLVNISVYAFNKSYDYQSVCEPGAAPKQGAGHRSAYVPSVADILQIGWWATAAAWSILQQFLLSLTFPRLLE
T1 sequence (P54289 957-1103 partner limits assumed): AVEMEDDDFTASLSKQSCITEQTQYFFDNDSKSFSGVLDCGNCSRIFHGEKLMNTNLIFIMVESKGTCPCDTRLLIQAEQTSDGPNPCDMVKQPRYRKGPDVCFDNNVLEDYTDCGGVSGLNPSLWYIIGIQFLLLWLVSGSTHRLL

| SMILES | IC50 (CaV2.2) | IC50 (NaV1.3) |
| --- | --- | --- |
| CCN(Cc1cccc(C)c1)C(=O)c1cnc(N2CCN(C(C)=O)CC2)nc1-c1ccc(C#N)cc1 [compound 208] | > 10 µM | > 10 µM |
| CCN(Cc1cccc(C)c1)C(=O)c1cnc(NCC2CC2)nc1-c1ccccc1F [compound 209] | > 10 µM | > 10 µM |
| N#Cc1ccc(-c2nc(NC3CCCCC3)ncc2C(=O)N2CCCC2)cc1 [compound 210] | > 10 µM | > 10 µM |
| CC(C)N(Cc1ccccc1)C(=O)c1cnc(N2CCCC2)nc1-c1ccc(C#N)cc1 [compound 211] | > 10 µM | > 10 µM |
| O=C(NCC1CC1)c1cnc(N2CCOCC2)nc1-c1ccccc1F [compound 212] | > 10 µM | – |
| CCC(C)NC(=O)c1cnc(N2CCOCC2)nc1-c1ccccc1F (stereo not drawn) [compound 213] | > 10 µM | – |
| CCCCNC(=O)c1cnc(NCCCC)nc1-c1cccc(C)c1 [compound 214] | > 10 µM | – |
| CC(C)CN(C)C(=O)c1cnc(N2CCOCC2)nc1-c1ccccc1F [compound 215] | > 10 µM | – |
| CC(=O)N1CCN(c2ncc(C(=O)N(Cc3ccccc3)C(C)C)c(-c3ccccc3F)n2)CC1 [compound 216] | > 10 µM | > 10 µM |
| CC1C(NC(=O)c2cnc(N3CCOCC3)nc2-c2ccc(C#N)cc2)CC2CC1C2(C)C (stereo not drawn) [compound 217] | > 10 µM | > 10 µM |
| CCCCNC(=O)c1cnc(NC2CCCC2)nc1-c1cccc(C)c1 [compound 218] | > 10 µM | > 10 µM |
| CCC1CCC(C)N(C(=O)c2cnc(NCC3CC3)nc2-c2ccccc2F)C1 (stereo not drawn) [compound 219] | 2 to 10 µM | > 10 µM |
| CC1CC(C)CN(C(=O)c2cnc(NCCc3cccc(F)c3)nc2-c2ccc(C#N)cc2)C1 (stereo not drawn) [compound 220] | 2 to 10 µM | > 10 µM |
| CC1CCN(C(=O)c2cnc(NCc3ccccc3C(F)(F)F)nc2-c2ccc(C#N)cc2)CC1 [compound 221] | > 10 µM | – |
| CCN(Cc1ccccc1)C(=O)c1cnc(NCc2ccc3c(c2)OCO3)nc1-c1ccccc1F [compound 222] | > 10 µM | > 10 µM |
| CCN(C)c1ncc(C(=O)NCCCOC)c(-c2cccc(C)c2)n1 [compound 223] | > 10 µM | > 10 µM |
| O=C(NCc1ccccc1)c1cnc(NCCc2cccc(F)c2)nc1-c1ccccc1F [compound 224] | > 10 µM | > 10 µM |
| CC(=O)N1CCN(c2ncc(C(=O)N(C)CC(C)C)c(-c3ccc(-c4ccccc4)cc3)n2)CC1 [compound 225] | 2 to 10 µM | > 10 µM |
| CC(=O)N1CCN(c2ncc(C(=O)N3CCOCC3)c(-c3cccc(C)c3)n2)CC1 [compound 226] | > 10 µM | > 10 µM |
| CCN(C)c1ncc(C(=O)N(C)C2CCCCC2)c(-c2ccc(C#N)cc2)n1 [compound 227] | > 10 µM | > 10 µM |
| CCC(C)NC(=O)c1cnc(NC2CC3CC(C2C)C3(C)C)nc1-c1ccc(C#N)cc1 (stereo not drawn) [compound 228] | > 10 µM | > 10 µM |
| O=C(c1cnc(N2CCOCC2)nc1-c1ccc(-c2ccccc2)cc1)N1CCCCC1 [compound 229] | > 10 µM | > 10 µM |

| SMILES | IC50 (CaV2.2) | IC50 (NaV1.3) |
| --- | --- | --- |
| CCC(C)NC(=O)c1cnc(N(C)CC(C)C)nc1-c1ccc(C#N)cc1 (stereo not drawn) [compound 230] | > 10 µM | > 10 µM |
| COCCCNc1ncc(C(=O)NCC2CC2)c(-c2ccc(C#N)cc2)n1 [compound 231] | > 10 µM | > 10 µM |
| CC(C)N(Cc1ccccc1)C(=O)c1cnc(N2CCOCC2)nc1-c1ccc(C#N)cc1 [compound 232] | 2 to 10 µM | > 10 µM |
| CCCCNC(=O)c1cnc(N2CCOCC2)nc1-c1ccccc1F [compound 233] | > 10 µM | > 10 µM |
| CCN(C)C(=O)c1cnc(NCCc2ccc(OC)cc2)nc1-c1cccc(C)c1 [compound 234] | > 10 µM | – |
| Cc1cccc(-c2nc(NCc3cccc(Cl)c3)ncc2C(=O)N(C)CC(C)C)c1 [compound 235] | > 10 µM | > 10 µM |
| O=C(c1cnc(NCc2cccc(C(F)(F)F)c2)nc1-c1ccccc1F)N1CCOCC1 [compound 236] | > 10 µM | > 10 µM |
| N#Cc1ccc(-c2nc(NCCc3cccc(F)c3)ncc2C(=O)NCc2ccccc2)cc1 [compound 249] | > 10 µM | – |
| O=C(c1cnc(N2CCOCC2)nc1-c1ccccc1F)N1CCCC1 [compound 250] | > 10 µM | – |
| CC1CCCCC1NC(=O)c1cnc(N2CCOCC2)nc1-c1ccccc1F (stereo not drawn) [compound 254] | > 10 µM | – |
| O=C(c1cnc(N2CCOCC2)nc1-c1ccccc1F)N1CCOCC1 [compound 275] | > 10 µM | – |
| CC(=O)N1CCN(c2ncc(C(=O)N3CCCCC3)c(-c3ccc(-c4ccccc4)cc3)n2)CC1 [compound 278] | 2 to 10 µM | – |
| CN(C(=O)c1cnc(N2CCOCC2)nc1-c1ccccc1F)C1CCCCC1 [compound 283] | > 10 µM | – |
| N#Cc1ccc(-c2nc(N3CCOCC3)ncc2C(=O)NCc2ccccc2C(F)(F)F)cc1 [compound 287] | > 10 µM | – |
| CCN(Cc1ccccc1)C(=O)c1cnc(NC2CCCC2)nc1-c1ccccc1F [compound 311] | > 10 µM | – |
| CCN(C)c1ncc(C(=O)N(Cc2ccccc2)C(C)C)c(-c2ccccc2F)n1 [compound 312] | 2 to 10 µM | – |
| CCOCCN(CCOCC)C(=O)c1cnc(N2CCOCC2)nc1-c1ccccc1F [compound 315] | > 10 µM | – |
| Cc1cccc(-c2nc(NCc3cccc(Cl)c3)ncc2C(=O)N2CCOCC2)c1 [compound 318] | > 10 µM | – |
| O=C(NCC1CCCCC1)c1cnc(N2CCOCC2)nc1-c1ccccc1F [compound 328] | > 10 µM | – |
| CCN(Cc1cccc(C)c1)C(=O)c1cnc(N2CCCC2)nc1-c1ccccc1F [compound 335] | 2 to 10 µM | – |
| Cc1nc(N2CCOCC2)nc(-c2ccccc2F)c1C(=O)N(Cc1ccccc1)C(C)C [compound 338, N-benzyl-4-(2-fluorophenyl)-N-isopropyl-6-methyl-2-morpholinopyrimidine-5-carboxamide] | > 10 µM | – |
